Values quoted from earlier work in PMC11185183 (PNAS Nexus, 2024).

System: GC-B

## CN(C)CCN1CCCC(C(=O)Nc2nc3c(F)cc(F)cc3s2)C1 (stereo not shown) [MCUF-651]
  action on GC-B: lacked any action
